{"source": "patent US20240229063A1", "about": "“TRANSGENIC CORN EVENT ZM_CSM63715 AND METHODS FOR DETECTION AND USES THEREOF” (Monsanto Technology LLC, priority 2022, published 2024)", "test_system": "Cas 12a gRNA target sites on Zea mays B73 chromosome 8", "assay": "gRNA target site editing rate by Fragment Length Analysis in stably transformed corn plants", "type": "in vivo", "settings": "LbCas12a; for Number of Plants with Target Site Edits: stably transformed corn plants", "excerpt": "Agrobacterium T-DNA vectors were designed to evaluate gRNA and LbCas12a nuclease mediated cleavage at the selected target sites. Each T-DNA vector comprised 3 cassettes. The first cassette comprised a plant codon optimized LbCas12a (SEQ ID NO:33) flanked by the same nuclear localization signal sequence (NLS) at the 5′ and 3′ ends (SEQ ID:191), and was operably linked to Zea mays Ubiquitin promoter (SEQ ID NO:192) and a 3′UTR sequence from a rice lipid transfer protein (LTP) gene (SEQ ID NO:193). The second cassette was a unique gRNA cassette targeting one of the 17 targeting sites described in Table 5. The cassette comprised a Zea mays Pol III promoter operably linked to a Cas12a gRNA unit. […] The third cassette was an EPSPS expression cassette encoding a 5-enolpyruvylshikimate-3-phosphate synthase as a selectable marker for selecting transformants in the present of glyphosate.\nCorn embryo explants were transformed with the vectors described above by Agrobacterium-mediated transformation. Transformed plants were selected on glyphosate. Leaf samples from regenerated plantlets were harvested, and genomic DNA was extracted for Fragment Length Analysis (FLA). […] The amplicon fragment lengths were subsequently analyzed using capillary electrophoresis, and compared to a wildtype amplicon to identify mutants that had larger or smaller amplicons due to the presence of indels. […] One μl of the PCR product was combined with 0.5 μl of the GeneScan 1200 LIZ Size Standard (Thermo Fisher, MA), 8.5 μl of formamide, and ran on ABI3730 sequencer (Thermo Fisher, MA) to detect amplicon size and analyzed for fragment length variation to identify plants with mutations at the target sites. […] NA denotes that a transformation was performed, but was not successful. gRNA activity was determined by calculating the percentage of plants that contained a target site indel edit out of the total number of plants examined."}
{"substance": "ZmTS1: LbCas12a gRNA targeting site ZmTS1 (target SEQ ID NO 174, spacer SEQ ID NO 195) (guide ACCGACTTGGGCATATATTATTT; gRNA scaffold not given here)", "values": [{"measurement": "Target Editing Rate", "setting": "percentage of plants with a target site indel edit out of plants examined", "result": 11, "unit": "%"}, {"measurement": "Number of Plants with Target Site Edits", "result": 16}]}
{"substance": "ZmTS10: LbCas12a gRNA targeting site ZmTS10 (target SEQ ID NO 183, spacer SEQ ID NO 204) (guide CCACAAGGCTATTCACTCCCTAT; gRNA scaffold not given here)", "values": [{"measurement": "Number of Plants with Target Site Edits", "result": 32}]}
